We go through two molecules from patent US7666254B1, “Borate compositions for wood preservation” (Osmose, Inc., priority 2006, dated 2010).

This test concerns Coptotermes acinaciformis. The test can be described thus: ensis mean mass loss test: laboratory termite bioassay of treated Pinus radiata specimens, eight weeks. Format: in vivo. The settings on record: 8 weeks exposure, mean of 6 replicates, SE in parentheses. The text has this:
Pinus radiata D. Don (Radiata pine) specimens (20×20×10 mm long) were cut from the sapwood of several pruned, fast-grown trees that had been harvested from the northern plantation forests of […], Australia. These samples are referred to as “ensis samples.” Trees were 20 to 24 years old. Specimens were pooled and randomly allocated into treatment groups. Prior to treatment, specimens were conditioned to 9.5% moisture content (m.c.). […] The solutions were used immediately. The following impregnation protocol was used: (the “ensis impregnation protocol”). Specimens were treated by drawing a vacuum of -95 kPa for 30 minutes, introducing the preservative solution while under vacuum, and immediately releasing the vacuum. Specimens were allowed to absorb the solution for 30 minutes atmospheric pressure. Each specimen was weighed before and immediately after treatment to determine retention. The specimens closest to the desired retentions were selected. Prior to bioassay against termites, all test specimens from each treatment were artificially weathered to H2 conditions by vacuum oven drying for three days at 40° C. and -95 kPa. After removal from the vacuum ovens, the specimens were cooled in a desiccator before being weighed to obtain initial masses. At each stage, care was taken to ensure that specimens of different treatments were kept separate. The weathering step removed from the specimens any volatiles that may be deleterious to termite health and vigor, as well as to provide artificial ageing. The test specimens were subjected to bioassay in accordance with the minimum requirements specified for H2 conditions in the Australasian Wood Preservation Committee Protocols for Assessment of Wood Preservatives (AWPC 1997), using one species of subterranean termite, Coptotermes acinaciformis. C. acinaciformis is widely distributed throughout mainland Australia and is responsible for greater economic loss that all other species of Australian termites combined (Gay and Calaby 1970). Only fresh, field collected stocks of termites were used for the bioassay. These termites were collected from the Northern Territory, transported by air to the Ensis Clayton laboratory and used promptly. Six replicate test specimens of each treatment were exposed to termites. A further three specimens were designated as vacuum oven controls. The following testing protocol was used (the “[…] loss test”). A single test specimen was centered on a 29 mm plastic disc to stop diffusion of boron out of the specimen. They were centrally placed on a moist matrix of C. acinaciformis finely ground mound material (20g, 100% m.c.) within a 250 ml glass jar (96 mm high, 62 mm diameter). Five grams of C. acinaciformis were added to each jar. A plastic lid, with a central 9 mm diameter ventilator, closed the jar (FIG. 1). The duration of the bioassay was eight weeks. The bioassay was conducted in an insectary maintained at 27° C., 70% RH. […] At the conclusion of the bioassay, test specimens were removed from the jars and cleaned. The test specimens, as well as vacuum oven controls, were then vacuum oven dried under the same conditions that were used to obtain the initial masses (i.e., 3 days at 40° C. and -95 kPa). After cooling and weighing the specimens, the final and initial masses were compared to obtain mass loss. If necessary, the mass loss of specimens exposed to termites was adjusted to accommodate any changes recorded in the vacuum oven controls.

With `Cc1c(COC(=O)[C@@H]2[C@H](/C=C(\Cl)C(F)(F)F)C2(C)C)cccc1-c1ccccc1` (racemic) [bifenthrin], the Mean mass loss reads like this: (target retention 2.5 g/m^3 bifenthrin) 15.6 (2.9) %; (target retention 5.0 g/m^3 bifenthrin) 4.8 (0.5) %; (target retention 7.5 g/m^3 bifenthrin) 4.2 (0.4) %.

Turning to `O.O.O.O.O=BOB1OB(OB=O)OB2OB([O-])OB([O-])OB(O1)O2.[Na+].[Na+]` [BAE, disodium octaborate tetrahydrate], the Mean mass loss runs as follows: (target retention 0.1% BAE (% m/m in OD wood)) 93.5 (3.9) %; (target retention 0.2% BAE) 30.9 (5.3) %; (target retention 0.5% BAE) 48.6 (12.7) %.
